The data set in a line: recombinant barcode read abundance after kanamycin selection (control-corrected) (log10(CPM+1)); higher = more efficient recombination; sequences stand for … in AGTGCAGAGAAAATCGGCCAGTTTTCTCTGCCTGCAGTCCGCATGCCGT…AGATTTATGCAGCGGACTGCCTTTCTCCCAAAGTGATAAACCGGACAGTATCATGGACCGGTTTTCCCGGTAATCCGTATTTGCAAGGTTGGTTTCACT; site = the 11-nt target. In a few lines:
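Oligos holding a promoter, target, barcode and the J23119-driven first 104 bases of the bridge RNA were Gibson-cloned into a vector that supplied the other 73 bp plus a T7-inducible recombinase. This library was co-electroporated with a donor plasmid into E. coli. Two replicates went on chloramphenicol/ampicillin LB agar (control) and two on chloramphenicol/ampicillin/kanamycin with 0.1 mM IPTG. Recombination efficiency is read from averaged, control-corrected barcode counts per million at recombinant junctions, reported as log10(CPM+1).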
For “TCGCAGACTTGGGTTCTAACCTGTTGCAC (site TGGCCGACTGT)”, the “recombinant barcode read abundance (log10)” value was 0.119.

On to “TCGCCTACTTGGGTTCTAACCTGTTGCCG (site TCCCCGACTCG)”, for which the “recombinant barcode read abundance (log10)” value worked out at 0.255.

As to “TCGCCTACTTGGGTTCTAACCTGTTGCCG (site TCGCCTACTCG)”, the “recombinant barcode read abundance (log10)” value came to 0.19. In the case of “TCGCGCTCTTGGGTTCTAACCTGTTGCTT (site TCGAACTCTAA)”, the “recombinant barcode read abundance (log10)” value is 0.233. In the case of “TCGCGCTCTTGGGTTCTAACCTGTTGCTT (site TCGCGCTCTAA)” it was 0.419; in that of “TCGCTACCTTGGGTTCTAACCTGTTGCCT (site TCGCTACCTAG)”, 0.109.

For the sequence “TCGCTACCTTGGGTTCTAACCTGTTGCCT (site TGACTACCTAG)”, the “recombinant barcode read abundance (log10)” value was 0.157. As for “TCGGAATCTTGGGTTCTAACCTGTTGCCT (site GCGGAATCTAG)”, the figure is 0; as for “TCGGAATCTTGGGTTCTAACCTGTTGCCT (site TCGGAATCTAG)”, 0.543; as for “TCGGAGTCTTGGGTTCTAACCTGTTGCTT (site TCGGAGTCTAA)”, 1.87. In the case of “TCGGAGTCTTGGGTTCTAACCTGTTGCTT (site TCGGAGTCTAC)”, the “recombinant barcode read abundance (log10)” value worked out at 0.501. In the case of “TCGGAGTCTTGGGTTCTAACCTGTTGCTT (site TCGGAGTCTAG)” it was 1.17. In the case of “TCGGAGTCTTGGGTTCTAACCTGTTGCTT (site TCGGAGTCTAT)” it was 1.39; in that of “TCGGATGCTTGGGTTCTAACCTGTTGCAT (site GTTTCGACTTA)”, 0.272; in that of “TCGGATGCTTGGGTTCTAACCTGTTGCAT (site TCGGATGCTAT)”, 0.417. With “TCGGCTCCTTGGGTTCTAACCTGTTGCCT (site TCGGCTCCTAG)”, the “recombinant barcode read abundance (log10)” value is 0.712. Regarding “TCGGCTCCTTGGGTTCTAACCTGTTGCCT (site TTGGCGCCTAG)”, the “recombinant barcode read abundance (log10)” value amounted to 0.149. In the case of “TCGGGGTCTTGGGTTCTAACCTGTTGCCT (site ACGGGGTCTAG)” it was 1.23. In the case of “TCGGGGTCTTGGGTTCTAACCTGTTGCCT (site CCGGGGTCTAG)” it was 0.543; in that of “TCGGGGTCTTGGGTTCTAACCTGTTGCCT (site GCGGGGTCTAG)”, 0.0776. In the case of “TCGGGGTCTTGGGTTCTAACCTGTTGCCT (site TCGGGGTCTAG)” it was 1.27. Consider “TCGGTTCCTTGGGTTCTAACCTGTTGCCT (site TAGGTTCCTAG)”, for which the “recombinant barcode read abundance (log10)” value amounted to 0.439. In the case of “TCGGTTCCTTGGGTTCTAACCTGTTGCCT (site TCGGTTCCTAG)” it was 0.811; in that of “TCGTAGACTTGGGTTCTAACCTGTTGCTA (site GGTCGCCCTAC)”, 0.16.

In the case of “TCGTAGACTTGGGTTCTAACCTGTTGCTA (site TCGTAGACTTA)”, the “recombinant barcode read abundance (log10)” value is 0.215.

Turning to “TCGTCACCTTGGGTTCTAACCTGTTGCCT (site ACGTCACCTAG)”, the “recombinant barcode read abundance (log10)” value is 0.

In the case of “TCGTCACCTTGGGTTCTAACCTGTTGCCT (site CCGTCACCTAG)”, the “recombinant barcode read abundance (log10)” value amounted to 0.332. In the case of “TCGTCACCTTGGGTTCTAACCTGTTGCCT (site GCGTCACCTAG)” it was 0.139; in that of “TCGTCACCTTGGGTTCTAACCTGTTGCCT (site TCGTCACCTAG)”, 0.348. As for “TCGTCCTCTTGGGTTCTAACCTGTTGCCT (site TCGTCATCTAG)”, the figure is 0.225; as for “TCGTCCTCTTGGGTTCTAACCTGTTGCCT (site TCGTCCTCTAG)”, 0.323; as for “TCGTGCGCTTGGGTTCTAACCTGTTGCCT (site TCGTGCACTAG)”, 0.177.
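Also: IS621 recombinase and bridge RNA in Escherichia coli cells.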
